# Measured values taken from US20240335444A1, “MODULATORS OF BCL6 PROTEOLYSIS AND ASSOCIATED METHODS OF USE” (Arvinas Operations, Inc., priority 2023, published 2024).
# Legend:
# DLBCL-derived cell lines = test: Nine-day cell growth inhibition assay (CellTiter-Glo); format: cell-based; details: GCB lines OCI-Ly1, OCI-Ly7, SU-DHL-4, SU-DHL-6 and ABC lines SU-DHL-2, OCI-Ly10; 9 days; top dose 30 nM; concentration dependent
# Protocol: Antiproliferative effects of Compound A on DLBCL-derived cell lines were tested. Nine-day cell growth inhibition assays were conducted using GCB lines OCI-Ly1, OCI-Ly7, SU-DHL-4 and SU-DHL-6 (FIG. 3A), and ABC lines SU-DHL-2 and OCI-Ly10 (FIG. 3B) dosed with a 7-point 3-fold serial dilution of Compound A at a top dose of 30 nM. On days 3 and 6-7, samples were split to new 48-well plates for re-treatment, and 20% to a 96-well plate to measure cell viability using CellTiter-Glo (CTG). Split cells in the 48-well plates were retreated and cultured out to day 9, when 20% of each sample was analyzed by CTG. Dose response was plotted as a percentage of vehicle (DMSO) control (FIG. 3A and FIG. 3B). Graphs are representative of at least two independent proliferation assays per cell line.
# OCI-Ly7 = test: Tumor growth of DLBCL cell line derived xenograft model OCI-Ly7; format: in vivo, mice; details: po 1, 3, 10 or 30 mg/kg daily for 13 days (qd×13), dosing dependent
# Protocol: (§1) Mice bearing subcutaneous tumors were orally (po) administered vehicle or Compound A at 1, 3, 10, or 30 mg/kg daily for 13 days (qd×13). Dosing began with tumors at an average of 130 mm^3. […] FIG. 8C depicts tumor lysate BCL6 protein levels 16-hours post-last dose analyzed by western blotting. Individual tumor BCL6 levels are shown in a scatter plot, mean is represented by the bar, determined by densitometry, normalized to GAPDH loading controls, and shown as a percentage of vehicle. Percent BCL6 degradation (%) relative to vehicle is shown above each arm. Statistical analyses were performed using 2-way ANOVA: p<0.0001 (****). Error bars represent standard error of the mean (±SEM).
# SU-DHL-2 = test: Tumor growth of DLBCL cell line derived xenograft model SU-DHL-2; format: in vivo, mice; details: SU-DHL-2 xenograft, po 3, 10 or 30 mg/kg bid×27 or 30 mg/kg qd×27; dosing dependent
# Protocol: as §1, with “at” for “at 1,”, “mg/kg bi-daily for 27 days (bid×27) or 30 mg/kg” for “mg/kg”, “27” for “13”, “(qd×27).” for “(qd×13).”, “180” for “130”, “9C” for “8C”
# OCI-Ly10 = test: Tumor growth of DLBCL cell line derived xenograft model OCI-Ly10; format: in vivo, mice; details: po 3, 10 or 30 mg/kg bid×28 or 30 mg/kg qd×28, dosing dependent
# Protocol: (§2) Mice bearing subcutaneous tumors were orally (po) administered vehicle or Compound A at 3, 10, or 30 mg/kg bi-daily for 28 days (bid×28) or 30 mg/kg daily for 28 days (qd×28). Dosing began with tumors at an average of 190 mm^3. […] FIG. 10C depicts tumor lysate BCL6 protein levels 16-hours post-last dose analyzed by western blotting. Individual tumor BCL6 levels are shown in a scatter plot, mean is represented by the bar, determined by densitometry, normalized to GAPDH loading controls, and shown as a percentage of vehicle. Percent BCL6 degradation (%) relative to vehicle is shown above each arm. Statistical analyses were performed using 2-way ANOVA: p<0.05 (*), p<0.0001 (****). Error bars represent standard error of the mean (±SEM).
# LY6934 = test: PDX model of DLBCL, ABC/GCB (LY6934); format: in vivo, NOD/SCID or BALB/c Nude Mice; details: 30 mg/kg PO QD×21, compared to vehicle
# Protocol: HuPrime® Lymphoma Xenograft Models in NOD/SCID or BALB/c Nude Mice, 4/group, were dosed orally (per os, PO) daily for 21 days (QD×21) and tumor measurements were acquired twice per week. […] Data points represent the mean per group and error bars the standard error of the mean.
# BCL6 protein [1] = molecular target: T1, BCL6 protein (Homo sapiens, UniProt P41182); test: Tumor lysate BCL6 protein levels in OCI-Ly7 xenograft (western blotting); format: in vivo, mice; set-up: from tissue; host or cells: subcutaneous xenograft tumors of OCI-Ly1, OCI-Ly7, SU-DHL-2 or OCI-Ly10 cells in mice; details: 16-hours post-last dose (FIG. 8C)
# Protocol: as §1
# BCL6 protein [2] = molecular target: T1, BCL6 protein; test: Tumor lysate BCL6 protein levels in OCI-Ly10 xenograft (western blotting); format: in vivo, mice; set-up: from tissue; host or cells: subcutaneous xenograft tumors of OCI-Ly1, OCI-Ly7, SU-DHL-2 or OCI-Ly10 cells in mice; details: all dose levels, 16-hours post-last dose (FIG. 10C)
# Protocol: as §2
structure (smiles),measurement,setting,value
"CNC(=O)COc1cc2cc(Nc3nc(N4CCC(O[C@H]5C[C@H](N6CCC(c7ccc8c(c7F)CN(C7CCC(=O)NC7=O)C8=O)CC6)C5)CC4)ncc3Cl)ccc2n(C(C)C)c1=O (stereo partly shown) [Compound A, 2-({6-[(5-chloro-2-{4-[(1r,3r)-3-{4-[2-(2,6-dioxopiperidin-3-yl)-4-fluoro-1-oxo-2,3-dihydro-1H-isoindol-5-yl]piperidin-1-yl}cyclobutoxy]piperidin-1-yl}pyrimidin-4-yl)amino]-2-oxo-1-(propan-2-yl)-1,2-dihydroquinolin-3-yl}oxy)-N-methylacetamide]",DLBCL cell growth (antiproliferative effect),DLBCL-derived cell lines,significant decrease on DLBCL cells growth
same,Tumor growth,OCI-Ly7,inhibits the tumor growth
same,Tumor growth,SU-DHL-2,inhibits the tumor growth
same,Tumor growth,OCI-Ly10,inhibits the tumor growth
same,Change in mean tumor volume,LY6934,tumor regression
same,Tumor lysate BCL6 protein level,BCL6 protein [1],dose-dependent degradation of BCL6 protein
same,Tumor lysate BCL6 protein level,BCL6 protein [2],degraded BCL6 protein
